# Measured values published in paper PMC9597002, “The Combination of Individual Herb of Mi-Jian-Chang-Pu Formula Exerts a Synergistic Effect in the Treatment of Ischemic Stroke in Rats” (Oxidative Medicine and Cellular Longevity, 2022).
# What was measured:
# MCAO rats [1] = assay: Brain histopathology by HE staining; details: oral once daily 14 days
# Protocol: (§1) 0.5% CMC-Na was used as vehicle with an equal volume (100 g/ml body-weight) for each rat. Treatments were administered once daily by oral gavage for 14 consecutive days. After the last administration, rats were fasted for 12 h, MCAO surgery was performed according to the reference by H Nagasawa and K Kogure. […] After 2 h of sustained MCAO, reperfusion was conducted, and the rats in sham operation group received the same surgical procedures except that the occluding monofilament was not inserted.
# For brain histology, the tissue was fixed in 4% paraformaldehyde for 24 h, then the brain slices were rinsed, dehydrate, paraffin embedded, sectioned, and stained with hematoxylin-eosin (HE). The histopathological changes were observed under optical microscope.
# MCAO rats [2] = assay: Infarct volume measurement by TTC staining; assay type: in vivo, Sprague-Dawley rats; details: oral once daily 14 days, compared with model group
# MCAO rats [3] = assay: Neurological deficit score (Longa's five-point scale) 24 h after reperfusion; details: oral once daily 14 days, compared with model group
# Protocol: as §1
# 24 h after reperfusion, all rats were tested for sensorimotor ability according to the Longa's five-point scale (0, no neurologic deficit; 1, a slight forelimb flexion; 2 severe forelimb flexion and decreased resistance to lateral push; 3, spontaneous rotation or contralateral rotation to the affected side; 4, consciousness reduced and unable or difficult to move; 5, no response to stimulation).
smiles,measurement,setting,value
"CC(/C=C/C=C(\C)C(=O)O[C@@H]1O[C@H](CO[C@@H]2O[C@H](CO)[C@@H](O)[C@H](O)[C@H]2O)[C@@H](O)[C@H](O)[C@H]1O)=C\C=C\C=C(C)\C=C\C=C(/C)C(=O)O[C@@H]1O[C@H](CO[C@@H]2O[C@H](CO)[C@@H](O)[C@H](O)[C@H]2O)[C@@H](O)[C@H](O)[C@H]1O [A1, crocin I]",Histopathological changes in brain tissue (HE staining),MCAO rats [1],protective effect on brain injury
same,Cerebral infarction volume ratio (TTC staining),MCAO rats [2],reduce the infarction volume significantly
same,Neurological deficit score,MCAO rats [3],significant effects
"C/C=C\c1cc(OC)c(OC)cc1OC [B1, β-asarone]",Histopathological changes in brain tissue (HE staining),MCAO rats [1],protective effect on brain injury
same,Cerebral infarction volume ratio (TTC staining),MCAO rats [2],reduce the infarction volume significantly
same,Neurological deficit score,MCAO rats [3],significant effects
